In test [1] the test system is Citrobacter freundii 1982. In words: MIC in vitro of a 1:4 combination of ceftriaxone with a compound of formula I (Test D). The format is cell-based. The settings on record: Table 4; test D, 1:4 combination of ceftriaxone with the compound. The procedure:
The minimum inhibitory concentration in vitro ([…]) of a 1:4 combination of ceftriaxone with a compound of formula I against Citrobacter freundii 1982 was measured and compiled in Table 2 hereinafter.

In test [2] the test system is E. coli 1346. In words: Antibacterial activity of the products per se, serial dilution method in liquid medium (Test E). The format is cell-based. The settings on record: Table 4; test E, product per se. The text has this: The antibacterial activity of the products per se is illustrated on the basis of Table 3 hereinafter, the minimum inhibitory concentration […] in vitro against E. coli 1346 being determined using the serial dilution method in liquid medium: […]

SMILES strings stand for the structures. In brackets after ≈: the same amount, converted by molar mass. Structures can show the parent of a compound that is named as a salt. Bounds are passed on as bounds.

Take `Nc1nnc(SCC2=C(C(=O)O)N3C(=O)[C@H]4NC[C@@H](O2)[C@H]43)s1` [Example 29(c), (1aS,3aR,6bS)-S-(S-Amino-1,3,4-thiadiazol-2-yl-sulphanylmethyl)-1-oxo-4-oxa-1,1a,2,3,3a,6b-hexahydro-2,6a-diazacyclobut[cd]indene-6-carboxylic acid sodium salt]: in test [1], the “MIC C. freundii 1982 (D)” value came to 0.5 µg/mL. The “MIC E. coli 1346 (E)” value in test [2] was found to be 2 µg/mL.

As to `Cc1cc(SCC2=C(C(=O)O)N3C(=O)[C@H]4NC[C@@H](O2)[C@H]43)n2nc(C(N)=O)nc2n1` [Example 29(d), (1aS,3aR,6bS)-5-(2-Carbamoyl-5-methyl[1,2,4]triazolo-[1,5-a]pyrimidin-7-ylsulphanylmethyl)-1-oxo-1,1a,2,3,3a,6b-hexahydro-4-oxa-2,6a-diazacydobut[cd]indene-6-carboxylic acid], in test [1], the “MIC C. freundii 1982 (D)” value stood at 8 µg/mL. In test [2], the “MIC E. coli 1346 (E)” value is 4 µg/mL (≈ 9.58 µM).

`O=C(O)C1=C(CSc2ccnc3c2CCC3)S[C@@H]2CN(C(=O)Nc3ccc(O)cc3)[C@@H]3C(=O)N1[C@@H]32` [41(a), (1aS,3aR,6bS)-2-(4-Hydroxy-phenylcarbamoyl)-5-(6,7-dihydro-5H-1-pyrindin-4-ylsulphanylmethyl)-1-oxo-4-thia-1,1a,2,3,3a,6b-hexahydro-2,6a-diazacyclobut[cd]indene-6-carboxylic acid sodium salt]: in test [1], the “MIC C. freundii 1982 (D)” value worked out at 2 µg/mL. Moreover, the “MIC E. coli 1346 (E)” value in test [2] is over 32 µg/mL.

Take `CNC(=O)Cn1nnnc1SCC1=C(C(=O)O)N2C(=O)[C@H]3NC[C@@H](C1)[C@H]32` [Example 73, (1aS,3aR,6bR)-5-(1-Methylcarbamoylmethyl-1H-tetrazol-5-ylsulphahylmethyl)-1-oxo-1a,2,3,3a,4,6b-hexahydro-1H-2,6 a-diazacyclobut[cd]indene-6-carboxylicacid trifluoroacetate]: in test [1], the “MIC C. freundii 1982 (D)” value worked out at 1 µg/mL. Further, in test [2], the “MIC E. coli 1346 (E)” value is 1 µg/mL.

On to `CC(=O)N1C[C@H]2CC(CSc3nnnn3CC(=O)Nc3ccc(O)cc3)=C(C(=O)O)N3C(=O)[C@@H]1[C@@H]23` [78(a), (1aS,3aR,6bR)-2-Acetyl-5-[1-(4-hydroxy-phenylcarbamoylmethyl)-1H-tetrazol-5-ylsulphanylmethyl]-1-oxo-1a,2,3,3a,4,6b-hexahydro-1H-2,6a-diazacyclobut[cd]indene-6-carboxylic acid sodium salt], for which the “MIC C. freundii 1982 (D)” value in test [1] was found to be 0.5 µg/mL. Also, in test [2], the “MIC E. coli 1346 (E)” value is 1 µg/mL.

As for `Cc1nnc(SCC(=O)N2C[C@H]3CC(COC(N)=O)=C(C(=O)O)N4C(=O)[C@@H]2[C@@H]34)s1` [Example 58(e), (1aS,3aR,6bR)-5-Carbamoyloxymethyl-2-(5-methyl-1,3,4-thiadiazol-2-ylsulphanylacetyl)-1-oxo-1a,2,3,3a,4,6b-hexahydro-1H-2,6a-diazacyclobut[cd]indene-6-carboxylic acid sodium salt], the “MIC C. freundii 1982 (D)” value in test [1] amounted to 0.25 µg/mL. Also, the “MIC E. coli 1346 (E)” value in test [2] turned out to be 8 µg/mL.

As for `CNC(=O)OCC1=C(C(=O)O)N2C(=O)[C@@H]3[C@H]2[C@H](C1)CN3C(=O)C(F)(F)F` [98(b), (1aS,3aR,6bR)-5-Methylcarbamoyloxymethyl-1-oxo-2-trifluoroacetyl-1a,2,3,3a,4,6b-hexahydro-1H-2,6a-diazacyclobut[cd]indene-6-carboxylic acid sodium salt], the “MIC C. freundii 1982 (D)” value in test [1] was 1 µg/mL. Also, in test [2], the “MIC E. coli 1346 (E)” value is 2 µg/mL.

For `NC(=O)OCC1=C(C(=O)O)N2C(=O)[C@@H]3[C@H]2[C@H](C1)CN3C(=O)NCc1ccccc1` [Example 27(c), (1aS,3aR,6bR)-2-Benzylcarbamoyl-5-carbamoyloxymethyl-1-oxo-1a,2,3,3a,4,6b-hexahydro-1H-2,6a-diazacyclobut[cd]indene-6-carboxylic acid sodium salt], the “MIC C. freundii 1982 (D)” value in test [1] turned out to be 0.25 µg/mL. For the same compound, in test [2], the “MIC E. coli 1346 (E)” value was over 32 µg/mL.

For the compound `CC(=O)N1C[C@H]2CC(CSc3cc[n+](CC(=O)[O-])cc3)=C(C(=O)O)N3C(=O)[C@@H]1[C@@H]23` [52(a), (1aS,3aR,6bR)-[4-(2-Acetyl-6-carboxy-1-oxo-1a,2,3,3a,4,6b-hexahydro-1H-2,6a-diaza-cyclobut[cd]inden-5-yl-methylsulphanyl)-pyridinio]-acetate bromoacetate (1:3.18) sodium salt (1:4.18)], the “MIC C. freundii 1982 (D)” value in test [1] stood at 4 µg/mL. Moreover, in test [2], the “MIC E. coli 1346 (E)” value came out at 8 µg/mL.

On to `NC(=O)CSC1=C(C(=O)O)N2C(=O)[C@@H]3[C@H]2[C@H](C1)CN3C(=O)Nc1ccc(O)cc1` [3(p), (1aS,3aR,6bR)-5-Carbamoylmethylsulphanyl-2-(4-hydroxyphenylcarbamoyl)-1-oxo-5-(pyridin-4-ylsulphanyl)-1a,2,3,3a,4,6b-hexahydro-1H-2,6a-diazacyclobut[cd]indene-6-carboxylic acid sodium salt], for which the “MIC C. freundii 1982 (D)” value in test [1] turned out to be 1 µg/mL. Further, the “MIC E. coli 1346 (E)” value in test [2] came to 32 µg/mL.

Take `CNC(=O)OCC1=C(C(=O)O)N2C(=O)[C@@H]3[C@H]2[C@H](C1)CN3C(C)=O` [98(a), (1aS,3aR,6bR)-2-Acetyl-5-methylcarbamoyloxymethyl-1-oxo-1a,2,3,3a,4,6b-hexahydro-1H-2,6a-diazacyclobut[cd]indene-6-carboxylic acid sodium salt]: the “MIC C. freundii 1982 (D)” value in test [1] turned out to be 1 µg/mL. The “MIC E. coli 1346 (E)” value in test [2] came to 2 µg/mL.

Turning to `CC(=O)OCC1=C(C(=O)O)N2C(=O)[C@@H]3[C@H]2[C@H](C1)CN3C(=O)C(F)(F)F` [25(d), (1aS,3aR,6bR)-5-Acetoxymethyl-2-trifluoroacetyl-1-oxo-1a,2,3,3a,4,6b-hexahydro-1H-2,6a-diazacyclobut[cd]indene-6-carboxylic acid sodium salt], in test [1], the “MIC C. freundii 1982 (D)” value was found to be 0.5 µg/mL. For the same compound, the “MIC E. coli 1346 (E)” value in test [2] was found to be 4 µg/mL.

As to `CC(=O)N1C[C@H]2CC(CNS(C)(=O)=O)=C(C(=O)O)N3C(=O)[C@@H]1[C@@H]23` [88(a), (1aS,3aR,6bR)-2-Acetyl-5-methylsulphonylaminomethyl-1-oxo-1a,2,3,3a,4,6b-hexahydro-1H-2,6a-diazacyclobut[cd]indene-6-carboxylic acid sodium salt], the “MIC C. freundii 1982 (D)” value in test [1] came out at 4 µg/mL. Besides, the “MIC E. coli 1346 (E)” value in test [2] came to 16 µg/mL.

For the compound `NC(=O)OCC1=C(C(=O)O)N2C(=O)[C@@H]3[C@H]2[C@H](C1)CN3C(=O)NC1CC1` [27(d), (1aS,3aR,6bR)-5-Carbamoyloxymethyl-2-cyclopropylcarbarmoyl-1-oxo-1a,2,3,3a,4,6b-hexahydro-1H-2,6a-diazacyclobut[cd]indene-6-carboxylic acid sodium salt], the “MIC C. freundii 1982 (D)” value in test [1] came to 0.25 µg/mL. Further, in test [2], the “MIC E. coli 1346 (E)” value is 32 µg/mL.

Take `NC(=O)Cn1nnnc1SCC1=C(C(=O)O)N2C(=O)[C@H]3NC[C@@H](O1)[C@H]32` [Example 29(j), (1aS,3aR,6bS)-5-(1-Carbamoylmethyl-1H-tetrazol-5-ylsulphanylmethyl)-1-oxo-1,1a,2,3,3a,6b-hexahydro-4-oxa-2,6a-diazacyclobut[cd]indene-6-carboxylic acid]: in test [1], the “MIC C. freundii 1982 (D)” value is 4 µg/mL. The “MIC E. coli 1346 (E)” value in test [2] was determined as 8 µg/mL (≈ 21.8 µM).

The values above are taken from patent US5464617A, “β-lactam compounds” (Hoffmann-La Roche Inc., priority 1994, dated 1995).
